{"source": "patent EP0001395A2", "about": "“Substituted N-phenyl-2,5-pyrrolidinones, method for their preparation and their use as fungicides” (BAYER AG, priority 1977, dated 1979)", "key": {"Pellicularia sasakii": {"test_system": "Pellicularia sasakii", "assay": "Pellicularia test (rice plants)", "assay_type": "in vivo", "conditions": "spray on rice plants, infection of leaf sheaths rated after 5 to 8 days; compared with Zinksalz der Athylenbis-dithiocarbamidsäure", "from_the_text": "• Lösungsmittel: 11,75 Gewichtsteile Aceton • Dispergiermittel: 0,75 Gewichtsteile Alkyl-arylpolyglykoläther • Wasser: 987,50 Gewichtsteile • andere Zusätze: - Gewichtsteile -\nMan vermischt die für die gewünschte Wirkstoffkonzentration in der Spritzflüssigkeit nötige Wirkstoffmenge mit der angegebenen Menge des Lösungsmittels und des Dispergiermittels und verdünnt das Konzentrat mit der angegebenen Menge Wasser.\nMit der Spritzflüssigkeit bespritzt man 30 etwa 2-4 Wochen alte Reispflanzen bis zur Tropfnässe. Die Pflanzen verbleiben bis zum Abtrocknen in einem Gewächshaus bei Temperaturen von 22 bis 24°C und einer relativen Luftfeuchtigkeit von etwa 70 %. Die Pflanzen werden mit einer auf Malzagar gezogenen Kultur von Pellicularia sasakii inokuliert und bei 28 bis 30°C sowie 100 % relativer Luftfeuchtigkeit aufgestellt.\nBei den mit Pellicularia sasakii infizierten Pflanzen wird der Befall nach 5 bis 8 Tagen an den Blattscheiden ebenfalls im Verhältnis zur unbehandelten, aber infizierten Kontrolle bestimmt. Die Auswertung erfolgt in Wertzahlen von 1 bis 9. 1 bedeutet 100%ige Wirkung, 3= gute Wirkung, 5 = mäßige Wirkung und 9 = keine Wirkung."}, "Botrytis cinerea": {"test_system": "Botrytis cinerea", "assay": "Botrytis test (beans) / protective", "assay_type": "in vivo", "conditions": "protective spray on Phaseolus vulgaris, inoculation after 24 h, lesion size rated 3 days after inoculation; compared with Tetramethyl-thiuramidisulfid", "from_the_text": "Botrytis-Test (Bohnen) / protektiv\n• Lösungsmittel: 4,7 Gewichtsteile Aceton • Dispergiermittel: 0,3 Gewichtsteile Alkyl-arylpolyglykoläther • Wasser: 95,0 Gewichtsteile\nMan vermischt die für die gewünschte Wirkstoffkonzentration in der Spritzflüssigkeit nötige Wirkstoffmenge mit der angegebenen Menge des Lösungsmittels und verdünnt das Konzentrat mit der angegebenen Menge Wasser, welches die genannten Zusätze enthält.\nMit der Spritzflüssigkeit bespritzt man Pflanzen von Phaseolus vulgaris im 2-Blattstadium bis zur Tropfnässe. Nach 24 Stunden werden auf jedes Blatt 2 kleine mit Botrytis cinerea bewachsene Agarstückchen aufgelegt. Die inokulierten Pflanzen werden in einer abgedunkelten, feuchten Kammer bei 20°C aufgestellt. 3 Tage nach der Inokulation wird die Größe der Befallsflecken auf den Blättern bonitiert.\nDie erhaltenen Boniturwerte werden auf Prozent Befall umgerechnet. 0 % bedeutet keinen Befall, 100 % bedeutet, daß der Befallsfleck vollständig ausgebildet ist."}}}
{"molecule": "O=C1CC(C2C=CCC2)C(=O)N1c1cc(Cl)cc(Cl)c1", "note": "(centres unmarked) [Beispiel 1, N-(3,5-Dichlorphenyl)-△ ^2-cyclopenten-1-yl-bernsteinsäureimid]", "values": [{"measurement": "Wirkung", "setting": "Pellicularia sasakii", "value": "gute, dem bekannten Zinksalz der Athylenbis-dithiocarbamidsäure überlegene Wirkung"}, {"measurement": "Wirkung", "setting": "Botrytis cinerea", "value": "gute, dem bekannten Tetramethyl-thiuramidisulfid überlegene Wirkung"}]}
